Experiment [1] concerns the target Tyk2 kinase activity on STAT4 in NK92 cells (Homo sapiens, UniProt P29597). In words: pSTAT4 cell assay (MSD; NK92 cells, 30 ng/mL IL2 stimulation). The following applies: 30 ng/mL IL2, 15 minutes. It counts as cell-based. The method, boiled down:
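Serum-starved NK92 cells, which natively express Tyk2 and STAT4, were pretreated for 1 h with a 10-point 4-fold dilution series from 10 μM. They were then stimulated with 30 ng/mL IL2 for 15 min. Phospho-STAT in lysates was quantified by MSD with anti-STAT4 antibodies, and IC50 was obtained from 4-parameter logistic fits.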

The target in experiment [2] is T1, human JAK1 kinase domain (JH1) (Homo sapiens, UniProt P23458).
T1 construct: recombinantly generated catalytic kinase (also known as JH1) domain of human JAK1, JAK2, JAK3 and TYK2
Kind of experiment: JH1 biochemical assay for JAK1 (ADP-Glo kinase assay, recombinant JH1 catalytic domain, JAK3-342 peptide, 35 μM ATP). The following applies: JH1 kinase domain, ADP-Glo. The method, boiled down:
(§1)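 Kinase 4 nM JAK1 / 0.2 nM JAK2 / 0.3 nM JAK3 / 2 nM TYK2; 50 μM peptide; 100 min. Unused ATP depleted, ADP→ATP, luciferase luminescence. 11-pt 3-fold series from 10 or 1 μM; normalized, 4PL fit → IC50.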
(In general: ADP-Glo turns the ADP formed in a reaction into a luminescent signal.)

In experiment [3] the target is T2, human JAK3 kinase domain (JH1) (Homo sapiens, UniProt P52333).
T2 construct: recombinantly generated catalytic kinase (also known as JH1) domain of human JAK1, JAK2, JAK3 and TYK2
Kind of experiment: JH1 biochemical assay for JAK3 (ADP-Glo kinase assay, recombinant JH1 catalytic domain, JAK3-974 peptide, 4 μM ATP). To be noted: JH1 kinase domain, ADP-Glo. Summed up:
as §1

Experiment [4] has as its target JAK1 kinase activity on STAT3 in TF1 cells (Homo sapiens, UniProt P23458). Kind of experiment: pSTAT3 cell assay (MSD; TF1 cells, 30 ng/mL IL-6 stimulation). In kind it is cell-based. The following applies: 30 ng/mL IL-6, 15 minutes. Summed up:
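Serum-starved TF1 cells were pretreated with compound for 1 hour (10-point, four-fold dilutions from 10 μM), then stimulated with IL-6 for 15 minutes. Lysates were assayed for pSTAT3 by MSD with anti-STAT3 antibodies; IC50 came from a 4-parameter logistic fit of normalized percent activity.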

Experiment [5] deals with T3, human TYK2 kinase domain (JH1) (Homo sapiens, UniProt P29597).
T3 construct: recombinantly generated catalytic kinase (also known as JH1) domain of human JAK1, JAK2, JAK3 and TYK2
T3 sequence (P29597 897-1176 limits assumed): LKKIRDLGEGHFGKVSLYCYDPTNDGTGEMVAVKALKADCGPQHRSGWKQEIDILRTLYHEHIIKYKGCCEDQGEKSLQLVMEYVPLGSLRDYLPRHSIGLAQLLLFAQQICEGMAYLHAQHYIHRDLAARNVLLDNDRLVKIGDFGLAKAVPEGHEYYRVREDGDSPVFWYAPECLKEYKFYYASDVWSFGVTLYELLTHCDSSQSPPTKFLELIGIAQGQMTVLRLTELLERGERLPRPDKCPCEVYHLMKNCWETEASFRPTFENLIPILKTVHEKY
Kind of experiment: JH1 biochemical assay for TYK2 (ADP-Glo kinase assay, recombinant JH1 catalytic domain, JAK3-974 peptide, 10 μM ATP). To be noted: JH1 kinase domain, ADP-Glo. The method, boiled down:
as §1

In experiment [6] the target is JAK2 kinase activity on STAT5 in TF1 cells (Homo sapiens, UniProt O60674). In words: pSTAT5 cell assay (MSD; TF1 cells, 30 ng/mL IL-3 stimulation). To be noted: 30 ng/mL IL-3, 15 minutes. In kind it is cell-based. The method, boiled down:
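Serum-starved TF1 cells with native JAK2/STAT5 were pretreated 1 h with compound (10-point four-fold dilutions from 10 μM), then stimulated 15 min with 30 ng/mL IL-3. pSTAT5 in lysates quantified by MSD immunoassay; normalized percent activity fitted to a 4-parameter logistic curve for IC50.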

Experiment [7] concerns the target T4, human JAK2 kinase domain (JH1) (Homo sapiens, UniProt O60674).
T4 construct: recombinantly generated catalytic kinase (also known as JH1) domain of human JAK1, JAK2, JAK3 and TYK2
In words: JH1 biochemical assay for JAK2 (ADP-Glo kinase assay, recombinant JH1 catalytic domain, JAK3-974 peptide, 15 μM ATP). The following applies: JH1 kinase domain, ADP-Glo. The method, boiled down:
as §1

Sequence of JAK1 kinase activity on STAT3 in TF1 cells (P23458 whole entry): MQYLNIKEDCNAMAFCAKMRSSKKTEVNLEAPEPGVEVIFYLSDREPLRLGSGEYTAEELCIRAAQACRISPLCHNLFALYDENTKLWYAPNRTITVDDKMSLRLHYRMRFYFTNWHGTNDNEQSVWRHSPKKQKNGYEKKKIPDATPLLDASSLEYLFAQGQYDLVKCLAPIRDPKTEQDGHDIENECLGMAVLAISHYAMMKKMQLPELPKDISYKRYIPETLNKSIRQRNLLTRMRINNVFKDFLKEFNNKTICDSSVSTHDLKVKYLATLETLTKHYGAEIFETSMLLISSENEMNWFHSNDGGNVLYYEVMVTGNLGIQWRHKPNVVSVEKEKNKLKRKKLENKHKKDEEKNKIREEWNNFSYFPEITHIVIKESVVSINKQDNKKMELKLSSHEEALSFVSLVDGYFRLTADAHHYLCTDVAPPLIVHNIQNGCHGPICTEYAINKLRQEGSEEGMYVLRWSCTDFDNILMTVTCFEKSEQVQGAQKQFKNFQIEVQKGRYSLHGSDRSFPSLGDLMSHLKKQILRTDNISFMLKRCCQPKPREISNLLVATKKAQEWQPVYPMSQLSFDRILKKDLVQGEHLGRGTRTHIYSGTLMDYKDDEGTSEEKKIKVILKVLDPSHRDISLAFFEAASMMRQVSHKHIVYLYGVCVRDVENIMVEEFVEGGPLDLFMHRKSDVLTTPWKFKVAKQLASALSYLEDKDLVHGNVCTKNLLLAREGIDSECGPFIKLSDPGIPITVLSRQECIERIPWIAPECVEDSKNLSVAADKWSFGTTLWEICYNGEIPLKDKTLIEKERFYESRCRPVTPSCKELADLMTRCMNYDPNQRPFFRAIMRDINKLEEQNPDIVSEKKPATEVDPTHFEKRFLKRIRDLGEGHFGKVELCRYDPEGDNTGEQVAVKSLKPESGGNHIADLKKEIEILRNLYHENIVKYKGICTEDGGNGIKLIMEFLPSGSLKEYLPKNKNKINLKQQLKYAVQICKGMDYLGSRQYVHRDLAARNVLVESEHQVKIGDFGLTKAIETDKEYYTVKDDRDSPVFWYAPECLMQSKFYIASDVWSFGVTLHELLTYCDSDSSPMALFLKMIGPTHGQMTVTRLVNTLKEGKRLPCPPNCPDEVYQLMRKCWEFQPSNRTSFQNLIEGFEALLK
Sequence of JAK2 kinase activity on STAT5 in TF1 cells (O60674 whole entry): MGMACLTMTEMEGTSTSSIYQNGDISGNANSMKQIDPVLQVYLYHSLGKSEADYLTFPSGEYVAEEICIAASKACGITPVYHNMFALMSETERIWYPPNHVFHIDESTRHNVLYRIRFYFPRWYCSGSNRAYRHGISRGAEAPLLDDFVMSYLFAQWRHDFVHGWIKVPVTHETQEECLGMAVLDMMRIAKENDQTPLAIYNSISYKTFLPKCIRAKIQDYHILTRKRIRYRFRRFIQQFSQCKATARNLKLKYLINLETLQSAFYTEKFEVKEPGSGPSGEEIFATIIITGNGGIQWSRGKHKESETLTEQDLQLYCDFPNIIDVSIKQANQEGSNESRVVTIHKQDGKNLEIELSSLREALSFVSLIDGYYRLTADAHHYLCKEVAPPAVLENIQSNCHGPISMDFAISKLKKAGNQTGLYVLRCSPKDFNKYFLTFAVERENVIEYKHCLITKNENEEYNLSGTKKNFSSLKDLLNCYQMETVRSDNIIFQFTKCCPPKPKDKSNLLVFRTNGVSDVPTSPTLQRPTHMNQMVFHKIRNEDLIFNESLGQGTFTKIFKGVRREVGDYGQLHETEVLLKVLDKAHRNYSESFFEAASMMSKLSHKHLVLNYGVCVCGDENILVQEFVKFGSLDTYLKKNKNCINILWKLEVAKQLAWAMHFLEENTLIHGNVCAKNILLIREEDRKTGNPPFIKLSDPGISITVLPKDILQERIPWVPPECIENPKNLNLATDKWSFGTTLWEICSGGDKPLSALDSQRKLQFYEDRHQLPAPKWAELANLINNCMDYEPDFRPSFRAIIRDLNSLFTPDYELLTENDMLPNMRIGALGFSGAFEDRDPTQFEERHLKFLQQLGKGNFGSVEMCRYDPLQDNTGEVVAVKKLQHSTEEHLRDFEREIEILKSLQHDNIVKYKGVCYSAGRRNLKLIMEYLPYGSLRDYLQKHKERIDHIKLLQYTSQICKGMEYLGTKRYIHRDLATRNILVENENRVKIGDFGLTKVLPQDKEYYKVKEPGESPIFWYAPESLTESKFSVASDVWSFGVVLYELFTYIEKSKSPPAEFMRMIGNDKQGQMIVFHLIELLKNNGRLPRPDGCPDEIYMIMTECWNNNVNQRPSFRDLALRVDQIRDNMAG
T1 sequence (P23458 875-1153 limits assumed): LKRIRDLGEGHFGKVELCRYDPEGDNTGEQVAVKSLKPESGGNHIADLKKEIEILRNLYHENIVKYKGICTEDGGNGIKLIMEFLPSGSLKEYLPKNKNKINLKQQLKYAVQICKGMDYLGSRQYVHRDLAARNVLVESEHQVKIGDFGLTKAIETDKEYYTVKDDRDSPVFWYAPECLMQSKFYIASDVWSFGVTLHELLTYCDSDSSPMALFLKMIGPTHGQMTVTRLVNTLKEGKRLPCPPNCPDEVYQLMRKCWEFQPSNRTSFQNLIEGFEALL
T4 sequence (O60674 849-1124 limits assumed): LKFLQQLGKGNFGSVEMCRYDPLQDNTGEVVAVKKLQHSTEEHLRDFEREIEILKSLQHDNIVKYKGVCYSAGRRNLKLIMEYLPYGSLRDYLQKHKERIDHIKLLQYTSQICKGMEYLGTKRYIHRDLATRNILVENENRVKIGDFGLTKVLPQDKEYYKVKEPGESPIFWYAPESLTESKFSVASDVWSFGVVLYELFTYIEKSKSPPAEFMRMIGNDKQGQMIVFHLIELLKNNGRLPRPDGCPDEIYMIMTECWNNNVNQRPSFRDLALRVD
Sequence of Tyk2 kinase activity on STAT4 in NK92 cells (P29597 whole entry): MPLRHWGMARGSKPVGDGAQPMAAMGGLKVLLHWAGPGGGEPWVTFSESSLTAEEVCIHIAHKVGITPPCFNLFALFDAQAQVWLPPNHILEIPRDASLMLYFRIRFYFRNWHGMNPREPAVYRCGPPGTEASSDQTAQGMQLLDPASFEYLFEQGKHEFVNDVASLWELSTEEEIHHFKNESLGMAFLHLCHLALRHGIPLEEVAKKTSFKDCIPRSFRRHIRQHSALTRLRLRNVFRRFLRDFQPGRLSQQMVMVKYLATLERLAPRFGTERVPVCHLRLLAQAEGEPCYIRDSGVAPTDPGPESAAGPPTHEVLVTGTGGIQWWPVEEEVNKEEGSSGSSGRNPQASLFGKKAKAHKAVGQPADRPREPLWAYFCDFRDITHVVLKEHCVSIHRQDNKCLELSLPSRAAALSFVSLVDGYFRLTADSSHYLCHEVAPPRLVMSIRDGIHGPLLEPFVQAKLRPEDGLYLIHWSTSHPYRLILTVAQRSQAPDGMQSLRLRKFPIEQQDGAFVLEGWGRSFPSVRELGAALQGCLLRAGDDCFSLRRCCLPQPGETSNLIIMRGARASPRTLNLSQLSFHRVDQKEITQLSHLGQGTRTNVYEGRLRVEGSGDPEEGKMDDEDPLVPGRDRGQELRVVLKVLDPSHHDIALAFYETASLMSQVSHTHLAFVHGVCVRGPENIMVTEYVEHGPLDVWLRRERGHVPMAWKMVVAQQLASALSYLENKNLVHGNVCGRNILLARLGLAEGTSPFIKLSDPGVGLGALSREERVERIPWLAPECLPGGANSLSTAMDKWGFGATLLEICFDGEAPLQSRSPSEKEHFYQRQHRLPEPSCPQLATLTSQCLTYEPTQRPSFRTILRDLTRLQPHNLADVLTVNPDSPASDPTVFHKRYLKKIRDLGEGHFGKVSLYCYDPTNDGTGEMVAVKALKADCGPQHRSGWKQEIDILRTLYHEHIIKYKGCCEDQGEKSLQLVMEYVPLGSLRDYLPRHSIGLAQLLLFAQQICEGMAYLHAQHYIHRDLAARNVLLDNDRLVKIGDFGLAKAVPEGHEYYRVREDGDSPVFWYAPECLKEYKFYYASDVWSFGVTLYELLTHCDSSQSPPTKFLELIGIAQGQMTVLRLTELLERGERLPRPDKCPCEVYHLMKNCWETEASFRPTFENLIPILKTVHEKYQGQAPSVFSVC
T2 sequence (P52333 822-1111 limits assumed): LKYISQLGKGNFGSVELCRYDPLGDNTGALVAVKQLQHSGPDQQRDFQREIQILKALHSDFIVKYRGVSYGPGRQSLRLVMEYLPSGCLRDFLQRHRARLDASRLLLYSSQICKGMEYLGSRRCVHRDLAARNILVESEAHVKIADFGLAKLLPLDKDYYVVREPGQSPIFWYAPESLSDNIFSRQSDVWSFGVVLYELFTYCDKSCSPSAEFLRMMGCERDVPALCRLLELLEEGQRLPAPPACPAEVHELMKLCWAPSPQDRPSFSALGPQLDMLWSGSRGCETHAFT

As a reminder, the IC50 is the concentration at which inhibition is half-maximal. Regarding `C[C@@H]1CN(c2ccnc3[nH]c(-c4cnn(C)c4)nc23)C(=O)[C@]1(C#N)C1CC1` [Example 181, (3R,4S)-3-cyclopropyl-4-methyl-1-(2-(1-methyl-1H-pyrazol-4-yl)-3H-imidazo[4,5-b]pyridin-7-yl)-2-oxopyrrolidine-3-carbonitrile], the IC50 in experiment [1] was greater than 100 nM; in experiment [2], 100 to 1000 nM; in experiment [3], 100 to 1000 nM; in experiment [4], 1000 to 5000 nM; in experiment [5], 5 to 20 nM; in experiment [6] it was 5000 to 10000 nM. The IC50 in experiment [7] lay in the range of 100 to 1000 nM.

For the compound `C[C@@H]1CN(c2ccnn3cc(-c4cnn(C)c4)nc23)C(=O)[C@]1(C#N)C1CC1` [Example 182, (3R,4S)-3-cyclopropyl-4-methyl-1-(2-(1-methyl-1H-pyrazol-4-yl)imidazo[1,2-b]pyridazin-8-yl)-2-oxopyrrolidine-3-carbonitrile], the half-maximal inhibitory concentration (IC50) in experiment [1] is greater than 100 nM; in experiment [2], 100 to 1000 nM; in experiment [3], 100 to 1000 nM; in experiment [4], 5000 to 10000 nM; in experiment [5], 20 to 50 nM; in experiment [6], greater than 10000 nM. Moreover, the IC50 in experiment [7] fell in the range of 100 to 1000 nM.

Consider `C[C@@H]1CN(c2nc(-c3cnn(C)c3)cn3nccc23)C(=O)[C@]1(C#N)C1CC1` [Example 184, (3R,4S)-3-cyclopropyl-4-methyl-1-(6-(1-methyl-1H-pyrazol-4-yl)pyrazolo[1,5-a]pyrazin-4-yl)-2-oxopyrrolidine-3-carbonitrile], for which the IC50 in experiment [1] is 20 to 50 nM; in experiment [2] it was less than 100 nM; in experiment [3], less than 100 nM; in experiment [4], 100 to 1000 nM; in experiment [5], less than 5 nM; in experiment [6], 100 to 1000 nM. Also, the IC50 in experiment [7] is less than 100 nM.

Turning to `C[C@@H]1CN(c2nc(-c3cnn(C(F)F)c3)cn3nccc23)C(=O)[C@]1(C#N)C1CC1` [Example 185, (3R,4S)-3-cyclopropyl-1-(6-(1-(difluoromethyl)-1H-pyrazol-4-yl)pyrazolo[1,5-a]pyrazin-4-yl)-4-methyl-2-oxopyrrolidine-3-carbonitrile], the IC50 is 20 to 50 nM in experiment [1]; less than 100 nM in experiment [2]; less than 100 nM in experiment [3]; 100 to 1000 nM in experiment [4]; less than 5 nM in experiment [5]; 100 to 1000 nM in experiment [6]. Besides, the IC50 in experiment [7] was less than 100 nM.

Turning to `Cc1cnn2cc(-c3cnn(C)c3)nc(N3C[C@@H](C)[C@@](C#N)(C4CC4)C3=O)c12` [Example 186, (3R,4S)-3-cyclopropyl-4-methyl-1-(3-methyl-6-(1-methyl-1H-pyrazol-4-yl)pyrazolo[1,5-a]pyrazin-4-yl)-2-oxopyrrolidine-3-carbonitrile], the half-inhibitory concentration (IC50) in experiment [1] was greater than 100 nM; in experiment [2], 1000 to 5000 nM; in experiment [3], 100 to 1000 nM; in experiment [4], greater than 10000 nM; in experiment [5], 50 to 100 nM; in experiment [6] it was greater than 10000 nM. In addition, the IC50 in experiment [7] lay in the range of 1000 to 5000 nM.

In the case of `C[C@@H]1CN(c2nc(-c3cnn(C)c3)cn3ncc(F)c23)C(=O)[C@]1(C#N)C1CC1` [Example 187, (3R,4S)-3-cyclopropyl-1-(3-fluoro-6-(1-methyl-1H-pyrazol-4-yl)pyrazolo[1,5-a]pyrazin-4-yl)-4-methyl-2-oxopyrrolidine-3-carbonitrile], the IC50 is 50 to 100 nM in experiment [1]; less than 100 nM in experiment [2]; less than 100 nM in experiment [3]; 1000 to 5000 nM in experiment [4]; less than 5 nM in experiment [5]; 1000 to 5000 nM in experiment [6]. Further, the IC50 in experiment [7] was 100 to 1000 nM.

As to `CCn1cc(-c2cn3ncc(F)c3c(N3C[C@@H](C)[C@@](C#N)(C4CC4)C3=O)n2)cn1` [Example 188, (3R,4S)-3-cyclopropyl-1-(6-(1-ethyl-1H-pyrazol-4-yl)-3-fluoropyrazolo[1,5-a]pyrazin-4-yl)-4-methyl-2-oxopyrrolidine-3-carbonitrile], the IC50 in experiment [1] is 20 to 50 nM; in experiment [2] it was less than 100 nM; in experiment [3], less than 100 nM; in experiment [4] it was 100 to 1000 nM; in experiment [5], less than 5 nM; in experiment [6] it was 1000 to 5000 nM. Further, in experiment [7], the IC50 is less than 100 nM.

`C[C@@H]1CN(c2nc(-c3cnn(C(F)F)c3)cn3ncc(F)c23)C(=O)[C@]1(C#N)C1CC1` [Example 189, (3R,4S)-3-cyclopropyl-1-(6-(1-(difluoromethyl)-1H-pyrazol-4-yl)-3-fluoropyrazolo[1,5-a]pyrazin-4-yl)-4-methyl-2-oxopyrrolidine-3-carbonitrile]: the IC50 in experiment [1] is 50 to 100 nM; in experiment [2], less than 100 nM; in experiment [3], less than 100 nM; in experiment [4] it was 1000 to 5000 nM; in experiment [5], less than 5 nM; in experiment [6], 1000 to 5000 nM. For the same compound, in experiment [7], the IC50 lay within 100 to 1000 nM.

In the case of `CC(C)n1cc(-c2cn3ncc(F)c3c(N3C[C@@H](C)[C@@](C#N)(C4CC4)C3=O)n2)cn1` [Example 190, (3R,4S)-3-cyclopropyl-1-(3-fluoro-6-(1-isopropyl-1H-pyrazol-4-yl)pyrazolo[1,5-a]pyrazin-4-yl)-4-methyl-2-oxopyrrolidine-3-carbonitrile], the half-maximal inhibitory concentration (IC50) in experiment [1] was 20 to 50 nM; in experiment [2], less than 100 nM; in experiment [3] it was less than 100 nM; in experiment [4] it was 100 to 1000 nM; in experiment [5] it was less than 5 nM; in experiment [6], 1000 to 5000 nM. For the same compound, the IC50 in experiment [7] is less than 100 nM.

Take `C[C@@H]1CN(c2nc(-c3cnn([C@H]4CCOC4)c3)cn3ncc(F)c23)C(=O)[C@]1(C#N)C1CC1` [Example 191, (3R,4S)-3-cyclopropyl-1-(3-fluoro-6-(1-((S)-tetrahydrofuran-3-yl)-1H-pyrazol-4-yl)pyrazolo[1,5-a]pyrazin-4-yl)-4-methyl-2-oxopyrrolidine-3-carbonitrile]: the IC50 in experiment [1] is 50 to 100 nM; in experiment [2] it was less than 100 nM; in experiment [3], less than 100 nM; in experiment [4] it was 1000 to 5000 nM; in experiment [5], less than 5 nM; in experiment [6], 1000 to 5000 nM. Further, the IC50 in experiment [7] was less than 100 nM.

Turning to `C[C@@H]1CN(c2nc(-c3cnn4c3COCC4)cn3ncc(F)c23)C(=O)[C@]1(C#N)C1CC1` [Example 192, (3R,4S)-3-cyclopropyl-1-(6-(6,7-dihydro-4H-pyrazolo[5,1-c][1,4]oxazin-3-yl)-3-fluoropyrazolo[1,5-a]pyrazin-4-yl)-4-methyl-2-oxopyrrolidine-3-carbonitrile], the concentration for half-maximal inhibition (IC50) in experiment [1] is greater than 100 nM; in experiment [2], less than 100 nM; in experiment [3], less than 100 nM; in experiment [4] it was 1000 to 5000 nM; in experiment [5], 5 to 20 nM; in experiment [6], greater than 10000 nM. Besides, the IC50 in experiment [7] lay in the range of 100 to 1000 nM.

As for `COc1cccc(-c2cn3nccc3c(N3C[C@@H](C)[C@@](C#N)(C4CC4)C3=O)n2)n1` [Example 193, (3R,4S)-3-cyclopropyl-1-(6-(6-methoxypyridin-2-yl)pyrazolo[1,5-a]pyrazin-4-yl)-4-methyl-2-oxopyrrolidine-3-carbonitrile], the IC50 in experiment [1] is greater than 100 nM; in experiment [2] it was 100 to 1000 nM; in experiment [3], greater than 10000 nM; in experiment [4] it was greater than 10000 nM; in experiment [5], 5 to 20 nM; in experiment [6], greater than 10000 nM. For the same compound, the IC50 in experiment [7] is greater than 10000 nM.

Consider `C[C@@H]1CN(c2nc(-c3cccnc3)cn3nccc23)C(=O)[C@]1(C#N)C1CC1` [Example 194, (3R,4S)-3-cyclopropyl-4-methyl-2-oxo-1-(6-(pyridin-3-yl)pyrazolo[1,5-a]pyrazin-4-yl)pyrrolidine-3-carbonitrile], for which the IC50 in experiment [1] was greater than 100 nM; in experiment [2], less than 100 nM; in experiment [3] it was less than 100 nM; in experiment [4], 1000 to 5000 nM; in experiment [5] it was less than 5 nM; in experiment [6], 1000 to 5000 nM. Further, the IC50 in experiment [7] was in the range of 100 to 1000 nM.

Consider `C[C@@H]1CN(c2nc(-c3ccc(C#N)nc3)cn3nccc23)C(=O)[C@]1(C#N)C1CC1` [Example 195, 5-(4-((3R,4S)-3-cyano-3-cyclopropyl-4-methyl-2-oxopyrrolidin-1-yl)pyrazolo[1,5-a]pyrazin-6-yl)picolinonitrile], for which the IC50 in experiment [1] was greater than 100 nM; in experiment [2], less than 100 nM; in experiment [3] it was less than 100 nM; in experiment [4] it was 1000 to 5000 nM; in experiment [5], 5 to 20 nM; in experiment [6], greater than 10000 nM. Also, the IC50 in experiment [7] is 100 to 1000 nM.

The values above are taken from US20260297085A1, “1 H-PYRROLO[2,3-B]PYRIDIN-4-YL]-2-OXOPYRROLIDINE-3-CARBONITRILE DERIVATIVES AS TYROSINE KINASE 2 (TYK2) INHIBITORS FOR THE TREATMENT OF INFLAMMATORY DISEASES” (BIOGEN MA INC., priority 2023, published 2026).
